Data: patent publication US5985603A, “P2x receptor DNA and protein sequence” (Glaxo Group Limited, priority 1994, dated 1999)
Where a name gives a salt, the structure may show the parent alone.

Legend:
[1] = test system: P2X-purinoceptor; conditions: cited from earlier work
[2] = molecular target: T1, hP2X (Homo sapiens, UniProt P51575); assay: inward currents evoked by purinoceptor agonists in Xenopus oocytes expressing hP2X; type: cell-based; conditions: for full agonist activity: concentration-response curves; for agonist profile (rank order): oocytes expressing hP2X; for relative potency: relative to ATP, from EEC50
T1 construct: expressed in transfected cells; host or cells: Xenopus oocytes injected with in vitro transcribed RNA
T1 sequence (P51575 1-399): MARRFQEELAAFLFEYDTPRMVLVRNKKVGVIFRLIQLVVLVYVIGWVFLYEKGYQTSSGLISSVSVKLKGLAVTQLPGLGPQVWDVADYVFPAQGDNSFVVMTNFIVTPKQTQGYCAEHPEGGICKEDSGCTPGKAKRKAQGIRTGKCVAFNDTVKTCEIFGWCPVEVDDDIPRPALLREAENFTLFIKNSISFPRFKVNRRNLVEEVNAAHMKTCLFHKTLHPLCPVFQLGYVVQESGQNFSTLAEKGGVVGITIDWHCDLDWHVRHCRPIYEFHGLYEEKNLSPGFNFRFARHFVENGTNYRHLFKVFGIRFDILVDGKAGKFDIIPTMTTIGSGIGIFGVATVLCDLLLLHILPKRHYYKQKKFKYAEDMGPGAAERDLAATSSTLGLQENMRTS
Description: Human urinary bladder P2X cDNA, subcloned into the pBKCMV expression vector, was linearized with Notl, and transcribed in vitro with T3 polymerase in the presence of cap analogue m7G(5')ppp(5')G. Defolliculated Xenopus oocytes (Bertrand et al, Electrophysiology of neuronal nicotinic acetylcholine receptors expressed in Xenopus oocytes following nuclear injection of genes or cDNAs Meth Neurosci 4: 174-193 (1991)) were injected with 50 ng of human P2X in vitro transcribed RNA, and incubated at 18° C. for 2-6 days in the ND96 solution (mM): NaCl96, KCl2, MgCl2 1, CaCl2 2, sodium pyruvate 5, HEPES 5, ph 7.6-7.5, penicillin (10 U/ml), and streptomycin (10 μg/ml).
Oocytes were placed in a 1 ml chamber and superfused at 2-3 ml/min with ND96 solution with 0.1 mM BaCl2 replacing the 2 mM CaCl2 to prevent activation of endogenous calcium-activated chloride currents (Barish, A transient calcium-dependent chloride current in the immature Xenopus oocytes J Physiol 342: 309-325 (1983)). Currents were measured using a two-electrode voltage-clamp amplifier (Geneclamp Axon Instruments)at a holding potential of -60 mV. Microelectrodes were filled with 3 M KCl (0.5-2 M.OMEGA.). Data were collected using PClamp software (Axon Instruments). […] Antagonists were applied both in the superfusate and together with ATP in the U-tube solution.
Concentration response curves for purinoceptor agonists were fitted with a Hill slope of 1. […] Data are presented throughout as mean ± SEM for a given number of oocytes.

[3] = molecular target: T2, rat superior cervical ganglion P2X receptor (clone 3) (Rattus norvegicus, UniProt P51577); assay: functional properties of cloned P2X receptors (electrical recordings): clone 3; type: cell-based; conditions: for Ca++ block, clone 3: extracellular calcium 30 mM in text
T2 construct: The insert appeared to be a full length cDNA; expressed in transfected cells; host or cells: HEK293 cells transfected with pcDNA3 construct p464 (also oocytes injected with in vitro transcribed RNA)
T2 sequence (P51577 1-388): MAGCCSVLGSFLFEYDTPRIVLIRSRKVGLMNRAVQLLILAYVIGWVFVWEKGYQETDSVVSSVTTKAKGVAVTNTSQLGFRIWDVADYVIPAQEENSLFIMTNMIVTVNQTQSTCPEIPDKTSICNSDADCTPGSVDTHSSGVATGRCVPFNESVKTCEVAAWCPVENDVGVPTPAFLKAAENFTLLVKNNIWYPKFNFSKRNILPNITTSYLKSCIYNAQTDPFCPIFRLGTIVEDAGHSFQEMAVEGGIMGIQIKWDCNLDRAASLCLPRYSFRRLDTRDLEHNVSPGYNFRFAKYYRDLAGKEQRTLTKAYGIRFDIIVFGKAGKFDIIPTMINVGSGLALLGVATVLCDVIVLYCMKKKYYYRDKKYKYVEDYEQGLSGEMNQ
Description: (§1) HEK 293 cells were transfected by the lipofectin method (Felgner et al., Proc. Nat'l. Acad. Sci. USA 84 7413-7417 (1987)) with P2X -plasmid. DNA concentration used was 1 mg/2 ml medium placed into a 35 mm petri dish containing four 11 mm diameter coverslips on which HEK cells were placed at 10,000 cells per coverslip. […] Currents were recorded from HEK 293 cells using whole-cell recording methods and the AXOPATCH™ 200 amplifier (Axon Instruments); patch pipettes (5 M.OMEGA.) contained (mM) Cs or K aspartate 140, NaCl 5, EGTA 11, HEPES 5. The external solution was (mM) NaCl 150, KCl2, CaCl2 2, MgCl2 1, HEPES 5 and glucose 11; the pH and osmolarity of both solutions were maintained at 7.3 and 305 mosmol/l respectively. All recordings performed at room temperature. Data acquisition and analysis were performed using pCLAMP™ and AXOGRAPH™ software (Axon Instruments). […] The pH and osmolarity of the solutions were 7.4 and 295 mosmol/l respectively. For single channel measurements, a […]™ 500 amplifier and outside-out recording methods were used (Adelman et al., Neuron 9 209-216 (1992)). Wax-coated patch pipettes (5-10 M.OMEGA.) contained (mM) K-gluconate 115, HEPES 5, BAPTA 5 and MgCl2 0.5, external solution was 96 mM NaCl, 2 mM KCl, 1.8 mM CaCl2, 1 mM MgCl2, 5 mM Hepes pH 7.6, and 5 mM sodium pyruvate.
(§2) The functional characterisation of the clone illustrated in FIG. 2 (referred to herein as clone 3) was carried out by electrical recordings from transfected HEK293 cells and from oocytes injected with the in vitro transcribed RNA, as described in Example 4 for the rat vas deferens P2X receptor. Table A summarizes the main properties of clone 3 as compared to those of rat vas/human bladder cDNA clone, and the PC12 cDNA clone (provided by David Julius and Tony Brake of the University of California at San Francisco).

[4] = molecular target: T3, rat vas/human bladder P2X cDNA clone (Homo sapiens, UniProt P51575); assay: functional properties of cloned P2X receptors (electrical recordings): bladder; type: cell-based; conditions: Table A; for Ca++ block, bladder: extracellular calcium 30 mM in text
T3 construct: expressed in transfected cells; host or cells: HEK293 cells (oocytes are also named for the functional characterisation)
T3 sequence (P51575 1-399): T1 sequence (P51575 1-399)
Description: DNA concentration used was 1 mg/2 ml medium placed into a 35 mm petri dish containing four 11 mm diameter coverslips on which HEK cells were placed at 10,000 cells per coverslip. […] Currents were recorded from HEK 293 cells using whole-cell recording methods and the AXOPATCH™ 200 amplifier (Axon Instruments); patch pipettes (5 M.OMEGA.) contained (mM) Cs or K aspartate 140, NaCl 5, EGTA 11, HEPES 5. […] All recordings performed at room temperature. Data acquisition and analysis were performed using pCLAMP™ and AXOGRAPH™ software (Axon Instruments). […] ATP was applied by U-tube typically for 1 s; data was sampled at 5 kHz in 2 s segments beginning 300 ms prior to onset of agonist (ATP) application and filtered at 1 kHz.

[5] = molecular target: T4, PC12 P2X receptor (Rattus norvegicus, UniProt P49653); assay: functional properties of cloned P2X receptors (electrical recordings): PC12; type: cell-based; conditions: Table A; for Ca++ block, PC12: extracellular calcium 30 mM in text
T4 construct: host or cells: HEK293 cells (oocytes are also named for the functional characterisation of clone 3)
T4 sequence (P49653 1-472): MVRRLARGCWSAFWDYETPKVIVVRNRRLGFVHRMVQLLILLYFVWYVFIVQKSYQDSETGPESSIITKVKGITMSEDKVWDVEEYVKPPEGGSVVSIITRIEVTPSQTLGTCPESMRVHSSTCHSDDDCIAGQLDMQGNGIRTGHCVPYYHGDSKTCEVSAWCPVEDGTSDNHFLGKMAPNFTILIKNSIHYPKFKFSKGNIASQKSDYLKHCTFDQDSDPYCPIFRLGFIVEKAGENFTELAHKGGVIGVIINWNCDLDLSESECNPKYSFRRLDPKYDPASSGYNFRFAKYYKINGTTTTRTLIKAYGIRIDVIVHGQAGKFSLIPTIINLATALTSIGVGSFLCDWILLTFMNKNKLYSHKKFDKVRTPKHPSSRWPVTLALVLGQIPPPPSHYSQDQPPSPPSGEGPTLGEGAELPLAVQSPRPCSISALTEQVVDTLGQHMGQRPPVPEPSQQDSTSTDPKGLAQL
Description: as §1, §2

[6] = test system: hP2X mRNA; assay: induction of hP2X mRNA in HL60 cells by Northern blot; type: cell-based, human; conditions: 1.8 and 2.6 kb bands
Description: HL60 cells (human promyelocytes ATCC CCL240) were passaged twice weekly in RPMI-1640 supplemented with 25 mnM HEPES, 2 mM Glutamax II, and 10% heat-inactivated fetal calf serum (GIBCO BRL) . For each experiment 33×10^6 cells were resuspended at 2.5×10^5 cells/ml in medium containing either phorbol mystate acetate (100 nM), 1. 1% DMSO, or dibutyryl cAMP (200 uM) (SIGMA) for the indicated times.
PolyA^+ RNAs were obtained from Clontech Laboratories Inc. (Palo Alto) except for the urinary bladder and HL60 mRNA which were prepared as described (Valera et al (1994)--supra) . Samples were quantified by measuring the O.D. at 260 nm, and by staining the membrane with methylene blue. The RNA were fractionated on a 1% agarose--6% formaldehyde gel and electroblotted to a non-charged nylon membrane (BDH). Prehybridisation at 68° C. was performed for 6 hours in hybridisation buffer (50% formamide, 5× SSC, 2% blocking buffer (Boehringer Mannheim), 0.1%6 laurolylsarcosine, 0.02% SDS). Hybridisation was overnight at 68° C. in fresh hybridisation buffer with a digoxigenin-UTP labelled riboprobe (100 ng/ml) corresponding to the entire hP2 × sequence. The membrane was washed at 68° C.; twice in 2× SSC+0.1% SDS, and twice in 0.1× SSC+0.1% SDS. Chemiluminescent detection of hybridisation was carried at room temperature as follows: the membrane was rinsed 5 min in buffer B1 (0.1 M maleic acid, 0.15 M NaCl, pH 7.5), saturated for 1 hour in 1% blocking buffer (B2), incubated 30 min with anti-digoxigenin-antibody alkaline phosphatase conjugated (750 u/ml, Boehringer Mannheim) diluted 1:15000 in B2, washed in B1+0.30% tween 20 (1× 5 min, 1× 15 min, 1× 1 h), equilibrated for 5 min in buffer B3 (0.1 M Tris HCl pH 9.5, 0.1 M NaCl, 50 mM MgCl2), incubated 45-60 sec in lumigen PPD (Boehringer Mannheim) diluted 1:100 in B3. The humid membrane was sealed in a plastic bag, incubated 15 min at 37° C., and exposed 15 to 20 min to Hyperfilm-ECL (Amersham). […]

[7] = listed as Extracellular calcium

Compound	agonist potency order in whole tissue studies [1]	EC50 [2] [µM]	full agonist activity [2]	agonist profile (rank order) [2]	relative potency [2]	induction of P2X mRNA in HL60 cells [6]	further results
CSc1nc(N)c2ncn([C@@H]3O[C@H](COP(=O)(O)OP(=O)(O)OP(=O)(O)O)[C@@H](O)[C@H]3O)c2n1 [2MeSATP, 2-MethylthioATP tetra sodium salt]	α,β,-meATP >>2MeSATP≥ATP	0.6 ± 0.1	full agonists	2MeSATP≥ATP>α,β,-meATP	1.36		comparison of concentration-effect curves ([2]; ATP, 2MeSATP and 2-chloro-ATP): superimposable
[Ca+2] [Ca^++, calcium]							Ca++ block, clone 3 ([3]; Table A): intermediate; Ca++ block, clone 3 ([3]; Table A, listed as Extracellular calcium): intermediate in sensitivity; Ca++ block, bladder [4]: none; Ca++ block, bladder [4, 7]: does not block current; Ca++ block, PC12 [5]: very strong; Ca++ block, PC12 [5, 7]: inhibits the inward current
C[S+](C)[O-] [DMSO]						produced an increase in P2X mRNA	
CCCC(=O)Nc1ncnc2c1ncn2[C@@H]1O[C@@H]2COP(=O)(O)O[C@H]2[C@H]1OC(=O)CCC [dibutryl cAMP, dibutyryl cAMP]						produced an increase in P2X mRNA	
CCCCCCCCCCCCCC(=O)O[C@@H]1[C@@H](C)[C@@]2(O)[C@@H](C=C(CO)C[C@]3(O)C(=O)C(C)=C[C@@H]23)[C@@H]2C(C)(C)[C@]12OC(C)=O [phorbol diesters, phorbol mystate acetate]						produced an increase in P2X mRNA	
Nc1ncnc2c1ncn2[C@@H]1O[C@H](COP(=O)(O)CP(=O)(O)OP(=O)(O)O)[C@@H](O)[C@H]1O [α,β-meATP, α,β-methylene ATP lithium salt]	α,β,-meATP >>2MeSATP≥ATP	3.6 ± 1.6	full agonists	2MeSATP≥ATP>α,β,-meATP	0.23		EC50 ([3]; Table A, parameter (EC50) not given, read-out: agonist profile, clone 3): > 100 µM; agonist action ([3]; clone 3 (FIG. 14)): little or no agonist action; EC50 ([4]; parameter (EC50) not given, read-out: agonist profile, bladder): 3 µM; EC50 ([5]; parameter (EC50) not given, read-out: agonist profile, PC12): > 100 µM
